Assays:
[1] = biological target: T1, Cdc25B (Homo sapiens, UniProt P30305); assay: biochemical; details: read-out: % Inhibition (cdc25B)
T1 sequence (P30305 1-580): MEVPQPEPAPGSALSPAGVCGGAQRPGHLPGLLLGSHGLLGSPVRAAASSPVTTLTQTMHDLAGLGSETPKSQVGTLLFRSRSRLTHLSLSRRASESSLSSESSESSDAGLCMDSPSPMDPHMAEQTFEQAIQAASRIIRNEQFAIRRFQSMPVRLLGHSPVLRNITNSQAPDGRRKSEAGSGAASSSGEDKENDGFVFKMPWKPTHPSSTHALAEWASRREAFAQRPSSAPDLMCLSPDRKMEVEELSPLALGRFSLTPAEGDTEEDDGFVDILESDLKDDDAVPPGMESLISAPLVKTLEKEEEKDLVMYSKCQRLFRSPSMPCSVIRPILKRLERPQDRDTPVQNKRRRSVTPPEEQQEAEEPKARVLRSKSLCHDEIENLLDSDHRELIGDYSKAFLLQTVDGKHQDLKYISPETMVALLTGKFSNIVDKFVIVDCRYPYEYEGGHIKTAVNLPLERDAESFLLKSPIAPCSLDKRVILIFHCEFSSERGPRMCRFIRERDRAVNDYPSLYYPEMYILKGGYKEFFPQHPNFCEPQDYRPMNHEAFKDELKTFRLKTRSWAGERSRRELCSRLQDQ

[2] = biological target: LF (Bacillus anthracis, UniProt P15917); assay type: biochemical
[3] = test system: proteasome; assay type: biochemical, mouse
[4] = test system: Sterne B. anthracis spores; assay type: cell-based; details: 10 μM
[5] = biological target: T2, CD45 (Homo sapiens, UniProt P08575); assay: biochemical; details: read-out: inhibition of the phosphatase activity of CD45
T2 construct: purchased Upstate (Lake Placid, N.Y.)
T2 sequence (P08575 26-1306): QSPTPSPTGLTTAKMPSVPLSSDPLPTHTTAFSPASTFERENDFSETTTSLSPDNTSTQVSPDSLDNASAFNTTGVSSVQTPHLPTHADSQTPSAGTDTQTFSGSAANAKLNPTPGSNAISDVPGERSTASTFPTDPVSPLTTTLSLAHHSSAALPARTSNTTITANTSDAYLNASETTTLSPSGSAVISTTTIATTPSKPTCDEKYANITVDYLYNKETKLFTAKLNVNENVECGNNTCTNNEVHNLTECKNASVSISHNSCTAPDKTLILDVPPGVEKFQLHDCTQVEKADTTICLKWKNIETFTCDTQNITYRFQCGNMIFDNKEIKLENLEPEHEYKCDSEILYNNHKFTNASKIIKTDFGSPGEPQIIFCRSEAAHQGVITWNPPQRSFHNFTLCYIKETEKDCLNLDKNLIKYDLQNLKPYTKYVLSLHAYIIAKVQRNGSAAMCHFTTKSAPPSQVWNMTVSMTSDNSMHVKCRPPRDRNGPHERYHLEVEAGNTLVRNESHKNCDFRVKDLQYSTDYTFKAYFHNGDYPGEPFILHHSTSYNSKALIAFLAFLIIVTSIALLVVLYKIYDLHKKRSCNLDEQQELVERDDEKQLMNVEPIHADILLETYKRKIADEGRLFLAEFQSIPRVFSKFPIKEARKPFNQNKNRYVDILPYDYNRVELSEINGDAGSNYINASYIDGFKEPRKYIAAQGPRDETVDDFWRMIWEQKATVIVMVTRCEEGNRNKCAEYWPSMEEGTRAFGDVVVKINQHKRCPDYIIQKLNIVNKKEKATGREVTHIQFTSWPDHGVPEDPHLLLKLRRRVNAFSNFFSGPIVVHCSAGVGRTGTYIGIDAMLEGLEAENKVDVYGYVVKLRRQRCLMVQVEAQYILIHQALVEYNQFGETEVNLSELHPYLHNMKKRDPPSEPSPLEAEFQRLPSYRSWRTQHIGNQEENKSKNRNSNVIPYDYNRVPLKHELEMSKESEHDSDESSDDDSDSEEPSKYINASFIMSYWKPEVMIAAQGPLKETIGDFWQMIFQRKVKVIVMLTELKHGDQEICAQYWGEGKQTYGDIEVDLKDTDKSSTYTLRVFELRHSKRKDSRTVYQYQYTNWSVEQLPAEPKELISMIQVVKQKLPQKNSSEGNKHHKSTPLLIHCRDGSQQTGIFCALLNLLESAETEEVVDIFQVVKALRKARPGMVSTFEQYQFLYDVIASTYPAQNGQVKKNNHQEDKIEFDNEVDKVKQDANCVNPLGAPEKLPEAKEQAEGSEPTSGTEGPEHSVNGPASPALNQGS

[6] = biological target: T1, Cdc25B; details: Lazo et al. (2002); cited from earlier work
[7] = test system: CD45; assay: immunoblot of CD45 protein levels; assay type: cell-based, mouse; details: 72 hours, vs untreated or scrambled PMO
[8] = test system: CD45; assay: CD45 phosphatase activity after immunoprecipitation from cell lysates; assay type: cell-based, mouse; details: 8 μM, 72 hours
[9] = test system: MEK; assay type: cell-based, mouse
[10] = test system: Ames B. anthracis spores; details: in vivo

Sequence of LF (P15917 34-809 limits assumed): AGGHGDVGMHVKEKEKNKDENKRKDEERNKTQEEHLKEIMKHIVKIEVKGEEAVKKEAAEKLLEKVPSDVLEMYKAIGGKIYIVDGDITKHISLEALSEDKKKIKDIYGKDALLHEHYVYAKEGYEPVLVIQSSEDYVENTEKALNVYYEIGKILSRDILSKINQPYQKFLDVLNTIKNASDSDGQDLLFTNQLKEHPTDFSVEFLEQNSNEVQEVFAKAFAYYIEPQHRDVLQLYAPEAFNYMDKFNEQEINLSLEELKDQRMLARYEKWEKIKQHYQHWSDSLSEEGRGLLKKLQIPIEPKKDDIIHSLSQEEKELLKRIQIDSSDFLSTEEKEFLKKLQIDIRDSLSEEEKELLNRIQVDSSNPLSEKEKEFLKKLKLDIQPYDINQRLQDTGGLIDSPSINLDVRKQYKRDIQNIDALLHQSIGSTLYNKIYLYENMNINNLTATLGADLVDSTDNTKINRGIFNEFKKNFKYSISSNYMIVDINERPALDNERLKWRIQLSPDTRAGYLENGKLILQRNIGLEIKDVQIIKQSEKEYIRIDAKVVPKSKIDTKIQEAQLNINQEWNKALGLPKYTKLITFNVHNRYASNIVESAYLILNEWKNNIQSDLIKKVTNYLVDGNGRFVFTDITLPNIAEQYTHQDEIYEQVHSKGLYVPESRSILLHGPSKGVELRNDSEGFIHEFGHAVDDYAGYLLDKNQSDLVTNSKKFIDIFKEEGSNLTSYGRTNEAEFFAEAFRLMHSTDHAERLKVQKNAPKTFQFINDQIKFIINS

Row | Compound | inhibition at 10 µM [1] [%] | inhibition of LF enzymatic activity (cleavage of peptide substrate) [2] | inhibition of proteasome activity [3] | anti-microbial activity (growth of the bacteria) [4] | inhibition of Cdc25, previously reported [6] | also measured
1 | O=C1C(SCCO)=C(SCCO)C(=O)c2ccccc21 [NSC 95397] | 83 | None of the compounds were observed to inhibit | neither NSC 95397 nor NSC 270012 inhibited proteasome activity | do not inhibit the growth of the bacteria | previously reported to inhibit Cdc25 | inhibition at 10 µM [5]: ~94%
2 | Cc1ccc2c(c1C)-c1c(ccc(C)c1C)C(=O)C2=O [NSC 135880] | 99 | None of the compounds were observed to inhibit | – | – | previously reported to inhibit Cdc25 | –
3 | O=C1C=C(SCCO)C(=O)c2ccccc21 [NSC 148596] | 67 | None of the compounds were observed to inhibit | – | – | – | –
4 | NC(=O)CCSC1=CC(=O)c2ccccc2C1=O [NSC 270011] | 25 | None of the compounds were observed to inhibit | – | – | – | –
5 | NC(=O)CCCSC1=CC(=O)c2ccccc2C1=O [NSC 270012] | 72 | None of the compounds were observed to inhibit | neither NSC 95397 nor NSC 270012 inhibited proteasome activity | do not inhibit the growth of the bacteria | – | –
6 | CD45 PMO (CCACAAACCCATGGTCATATC; all phosphorodiamidate morpholino (PMO)) | – | – | – | – | – | CD45 protein levels by immunoblot [7]: dose dependent reduction; CD45 phosphatase activity following immunoprecipitation [8]: concomitant reduction in CD45 phosphatase activity; MEK cleavage [9]: MEK cleavage was not prevented; antibody titers in surviving mice [10]: developed protective antigen specific and lethal toxin neutralizing antibody titers; protection on re-challenge with Ames B. anthracis spores [10]: completely protected; survival ([10]; 100 mg/kg/day): greatly increased

From patent US20120135013A1, “CD45 and Methods and Compounds Related Thereto” (priority 2007, published 2012)
